Laboratory results from patent publication US5543147A, “Crystalline modification of 2,4-dioxo-6-methyl-1,2,3,4-tetrahydropyrimidine, a method for the preparation thereof and a medicinal preparation based on it” (Leonidov; Nikolai B., priority 1994, dated 1996).
Read-outs that look alike come from different tables or passages of the source.

Assays:
[1] = test system: plane multilayer wounds; test: wound-healing activity, plane multilayer wounds in rats; assay type: in vivo, random-bred white male rats; settings: for Rate of healing at 7 days / Rate of healing at 10 days / Rate of healing at 15 days / Mean time of falling off of crusts / Mean time of healing / Speeding up of healing: claimed 0.25% solution, known 1% solution in 0.9% aqueous NaCl
Method: (§1) The tests were carried out in 2 groups of 41 random-bred white male rats weighing 200±10 g. The experimental model in the 1st group were linear wounds of 50 mm long inflicted on the backs of the rats. Depending on the crystalline form of the tested compound used the rats were divided into 3 series. The first series was control--the wounds were pricked once daily with 0.9% aqueous solution of sodium chloride (0.5 ml) for 3 days. In the 2nd series the wounds were pricked by the same method with 1% solution of the known crystalline form of the said compound in 0.9% aqueous solution of sodium chloride. In the 3rd series the wounds were pricked by the same method with 0.25% solution of the claimed compound in 0.9% aqueous solution of sodium chloride.
Plane multilayer wounds of 400 mm^2 in area inflicted on the backs of rats were an experimental model in the 2nd group of experiments. The animals were also divided into 3 series. Here, the pricking of the wound was done by the same schedule as in the 1st group. The parameters of the wound process in the time course at 7, 10 and 15 days after wound inflicting were assessed by the methods of tensiometry, planimetry and clinical observations. The time of falling off of crusts and complete healing of the wounds was determined. The rate of the wound area decrease (V) in the course of healing was calculated by the formula [formula] wherein So is the initial wound area, mm^2,
St the wound area on the day of measurement t, mm^2.
(§2) The results of trials of the wound-healing activity of the claimed and the known crystalline forms of the said compound were statistically treated with the confidence limit of 95%.

[2] = test system: linear wounds; test: wound-healing activity, model of linear wounds in rats (scar strength); assay type: in vivo, random-bred white male rats; settings: for Strength of the scar: wounds pricked once daily for 3 days; for Strength of the scar / Increase of the scar strength as compared with control: claimed 0.25% solution, known 1% solution in 0.9% aqueous NaCl
Method: as §1, §2

[3] = solubility of the crystalline powder; assay type: physicochemical
[4] = acute toxicity; assay type: in vivo, random-bred white mice, rats, and chinchilla rabbits
Method: (§3) Trials of the toxicity of the claimed crystalline modification of the said compound were carried out comparing it with the known crystalline form of the said compound.
(§4) Investigations of the general toxic effect of the claimed crystalline modification of 2,4-dioxo-6-methyl-1,2,3,4-tetrahydropyrimidine and the known crystalline form of the said compound were carried out in 3 […] species (random-bred white mice, rats, and chinchilla rabbits).

[5] = test system: allergenic and immunotoxic properties; test: studies of the allergenic and immunotoxic properties
[6] = rate of dissolution of the active substance (rotary basket); assay type: physicochemical; settings: water for injections 1000 ml, 37±1° C, 50 rpm, 0.25 g, 0 to 45 min
Method: The rate of dissolution of the active substance is determined in a "rotary basket" type DT-D6 apparatus (Erweka Co, BRD) at a mixing rate of 50 rpm. The dissolving medium is water for injections in a volume of 1000 ml at a temperature of 37±1° C. The content of the active substance in the solution is determined spectrophotometrically in a spectrophotometr No. 75 (Perkin-Elmer Co) at a wave length of 259 nm. For comparison, the known crystalline form of the said compound is used under identical conditions. The parameter for comparison is the constant of dissolution rate based on the mean results of the compound transition into solution from the amount thereof used (0.25 g) in the time of 0 to 45 min. The water for injections is used as a control.

[7] = test system: eyes; test: safety of long-term subconjunctival inoculations (2-month toxicological experiment); assay type: in vivo, white rats and chinchilla rabbits
Method: The study on the safety of long-term subconjunctival inoculations of the claimed modification in comparison with the known form of the said compound was carried out in a 2-month-long toxicological experiment in 148 mature male and female white rats and 49 male and female chinchilla rabbits.
Male rats and rabbits were given subconjunctivally I drop each of 2%, 25% and 50% suspension of the claimed modification of the said compound into each eye once daily. The results obtained were compared with those in a group of male rats and rabbits given one drop of 2% suspension of the known form of the said compound into the eye. Besides, a 2% suspension of the claimed modification of the said compound was given to a group of female rats and rabbits which were compared with the control group. In a separate series of experiments in the same animals (rats, rabbits) carried out by the same schedule of a chronic experiment, the effect of the claimed pharmaceutical in the form of an eye ointment containing as the active substance the claimed modification of the said compound was determined. The results of this study confirm the data obtained in the studies of the effect of the claimed compound. Comparisons with the pharmaceutical containing the known form of the said compound gave analogous results.

[8] = test system: wounds; test: preliminary experiments on the wound-healing effect; assay type: in vivo
[9] = subacute toxicity; assay type: in vivo, random-bred white mice, rats, and chinchilla rabbits; settings: subacute routes of inoculation
Method: as §3, §4

[10] = prior-art description, cited from earlier work

With `Cc1cc(O)nc(O)n1` [claimed modification, 2,4-dioxo-6-methyl-1,2,3,4-tetrahydropyrimidine] the “shortening of time of complete healing of plane wounds as compared with the control” value [1] was 26.2%, the “shortening of time of complete healing of plane wounds as compared with the known form of the compound” value ([1]; 0.25% vs 1% solution) was 12% and the “Rate of healing at 7 days” value [1] was 61.6 ± 6.3%. For the same molecule, the “Rate of healing at 10 days” value [1] was 89.0 ± 4.9%, the “Rate of healing at 15 days” value [1] was 95.4 ± 3.8% and the “Mean time of falling off of crusts” value [1] was 8.6 ± 0.7 days. The “Mean time of healing” value [1] was 17.7 ± 1.6 days, the “Speeding up of healing” value [1] was 26.2% and the “increase of rupture strength of linear wounds as compared with the control” value ([2]; 7 days) was 90.4%. For the same molecule, the “increase of rupture strength of linear wounds as compared with the known form of the compound” value ([2]; 7 days, 0.25% vs 1% solution) was 43%, the “Strength of the scar” value ([2]; 7 days) was 57.3 ± 9.0 g/mm^2 and the “Increase of the scar strength as compared with control” value [2] was 90.4. For the same molecule, the solubility in chloroform ([3]; chloroform) was “practically insoluble”, the “solubility in ethyl alcohol” value ([3]; ethyl alcohol) was “poorly soluble” and the “solubility in ethyl ether” value ([3]; ethyl ether) was “practically insoluble”. The solubility in water ([3]; water) was “poorly soluble”, the “class of toxicity (acute toxicity)” value [4] was “Vth class of toxicity (practically non-toxic compounds)” and the “class of toxicity (acute toxicity, intraperitoneal route)” value ([4]; intraperitoneal) was “VI class of relatively harmless compounds”. For the same molecule, the mean lethal dose ([4]; subconjunctival route) was “could not be established”, the “formation of the tumor necrosis factor” value [5] was “not to be conducive to the formation of the tumor necrosis factor” and the “functional activity of the B-cell immunity” value [5] was “no effect on the functional activity of the B-cell immunity”. For the same molecule, the “functional activity of the Te-cell immunity” value [5] was “not to inhibit the functional activity of the Te-cell immunity”, the specific leukocyte lysis [5] was “no specific leukocyte lysis” and the “specific reaction of leukocyte agglomeration” value [5] was “no specific reaction of leukocyte agglomeration”. For the same molecule, the “allergenic and immunotoxic properties” value ([5]; overall) was “no allergenic and immunotoxic properties”, the “constant of the dissolution rate K” value [6] was 0.025 min⁻¹ and the “microscopic changes in the eye” value ([7]; large doses) was “lymphoid infiltrates were formed in the ciliary body, iris, and sometimes in the initial parts of the optic nerve, but these changes were reversible”. The “macroscopic local inflammatory reactions of the eyes” value ([7]; long-term administration) was “no macroscopic local inflammatory reactions of the eyes”, the “concentration of solution at which significant (comparable) wound-healing effect was manifested” value [8] was 0.25 % by weight and the cumulative effect [9] was “weak”.

With `Cc1cc(O)nc(O)n1` [known form, 2,4-dioxo-6-methyl-1,2,3,4-tetrahydropyrimidine] the “Rate of healing at 7 days” value [1] was 57.5 ± 8.3%, the “Rate of healing at 10 days” value [1] was 80.2 ± 2.0% and the “Rate of healing at 15 days” value [1] was 90.2 ± 2.8%. For the same molecule, the “Mean time of falling off of crusts” value [1] was 9.6 ± 0.5 days, the “Mean time of healing” value [1] was 18.4 ± 1.6 days and the “Speeding up of healing” value [1] was 23.3%. For the same molecule, the “Strength of the scar” value ([2]; 7 days) was 40.1 ± 5.0 g/mm^2, the “Increase of the scar strength as compared with control” value [2] was 33.2 and the “class of toxicity (acute toxicity)” value [4] was “slightly higher toxicity, although they belong to the same group”. For the same molecule, the “constant of the dissolution rate K” value [6] was 0.18 min⁻¹, the solubility in chloroform ([10]; chloroform) was “insoluble” and the solubility in ether ([10]; ether) was “insoluble”. The “solubility in ethyl alcohol” value ([10]; ethyl alcohol) was “poorly soluble”, the solubility in water ([10]; water) was “poorly soluble” and the “concentration of solution at which significant (comparable) wound-healing effect was manifested” value [8] was 1 % by weight.
